Test systems include OVCAR-5; OVCAR-8; NCI-H23; SR; NCI-H522; IGROV-1; MOLT-4; HCC 2998; SF-539; SNB-75; CAKI-1; OVCAR-3; K562; A498; NCI-H226; U-251; MDA-MB-231; UACC-62; HCT-15; 786-0.
What all share (assay): NCI-60 cell line screen, 48 h

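Where inhibition never reached the appropriate level, the endpoint shown equals the highest concentration tested. Otherwise, values were interpolated linearly from a five-concentration, 48-hour dose response in 96-well plates. Abbreviation: GI50, concentration required for 50% inhibition of growth.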 Active and inactive are the calls of the source. Cut-off read from the data, not from the text of the source: active = GI50 up to about 1.1 µM and inactive = higher.

The text below walks through data of ChEMBL document CHEMBL1201862, “PubChem BioAssay data set” (2004).

In the case of `CC1CCC2(OC1)OC1CC3C4CC=C5CC(OC6OC(CO)C(OC7OC(C)C(OC8OC(C)C(O)C(O)C8O)C(O)C7O)C(O)C6OC6OC(C)C(O)C(O)C6O)CCC5(C)C4CCC3(C)C1C2C` (stereo not given), the GI50 was 1.12 µM (inactive) in the assay on OVCAR-5; 0.326 µM (active) with OVCAR-8; 1.66 µM (inactive) in the assay on NCI-H23; 0.0196 µM (active) in the assay with SR; 0.643 µM (active) in the assay with NCI-H522; 1.3 µM (inactive) with IGROV-1. Also, the GI50 is 0.237 µM (active) in the assay with MOLT-4; 0.313 µM (active) in the assay with HCC 2998; 0.394 µM (active) in the assay on SF-539; 0.372 µM (active) in the assay on SNB-75; 1.29 µM (inactive) with CAKI-1; 1.75 µM (inactive) in the assay on OVCAR-3. For the same compound, the GI50 in the assay on K562 was 0.142 µM (active); with A498 it was 0.291 µM (active); with NCI-H226 it was 1.36 µM (inactive); in the assay on U-251, 0.65 µM (active); with MDA-MB-231, 0.0628 µM (active); with UACC-62, 0.311 µM (active). Moreover, the GI50 was 1.51 µM with HCT-15 and 1.07 µM (active) in the assay on 786-0.

In the case of `CC12CC3CC/C(=N\O)C(C1)C3(N1CCOCC1)C/C2=N/O` (stereo not given), the GI50 with OVCAR-5, with OVCAR-8, in the assay on NCI-H23, in the assay on SR, in the assay on NCI-H522 and with IGROV-1 was > 100 µM (inactive) in each case. The GI50 is > 100 µM (inactive) with MOLT-4; > 100 µM (inactive) with HCC 2998; > 100 µM (inactive) with SF-539; 25.1 µM (inactive) in the assay on SNB-75; > 100 µM (inactive) in the assay on CAKI-1; > 100 µM (inactive) with OVCAR-3. The GI50 in the assay on K562, in the assay on A498, in the assay with NCI-H226, in the assay on U-251, in the assay on MDA-MB-231 and in the assay on UACC-62 was > 100 µM (inactive) each time. Also, the values for the GI50 in the assay with HCT-15 and in the assay on 786-0 were more than 100 µM and > 100 µM (inactive), respectively.

`COC(=O)NC1C(C)OC(OC2C/C=C(/C)C3C=CC4C(OC5CC(OC6CC(O)C(OC7CC(O)C(OC)C(C)O7)C(C)O6)C(O)C(C)O5)C(C)CC(C)C4C3(C)C(=O)C3=C(O)C4(CC(C)C(CO)=CC4/C=C\2C)OC3=O)CC1(C)[N+](=O)[O-]` (stereo not given): the GI50 is 17.9 µM (inactive) in the assay with OVCAR-5; 9.38 µM (inactive) in the assay with OVCAR-8; 11.9 µM (inactive) in the assay on NCI-H23; 14.8 µM (inactive) in the assay on SR; 5.69 µM (inactive) with NCI-H522; 8.93 µM (inactive) in the assay on IGROV-1. Besides, the GI50 in the assay with MOLT-4 is 3.72 µM (inactive); with HCC 2998, 16.6 µM (inactive); with SF-539, 16.9 µM (inactive); with SNB-75, 19.7 µM (inactive); with CAKI-1 it was 19.4 µM (inactive); in the assay with OVCAR-3 it was 6.84 µM (inactive). Further, the GI50 in the assay on K562 was 4.41 µM (inactive); in the assay on A498, 15.6 µM (inactive); in the assay with NCI-H226, 11.7 µM (inactive); in the assay on U-251, 10.9 µM (inactive); with MDA-MB-231, 12.6 µM (inactive); in the assay with UACC-62, 6.37 µM (inactive). Moreover, the GI50 in the assay on HCT-15 is 18 µM; in the assay on 786-0 it was 9.93 µM (inactive).

On to `c1ccc(C(OCCN2CC3CCC(C2)N3)c2ccccc2)cc1`, for which the GI50 with OVCAR-5 was > 100 µM (inactive); with OVCAR-8, > 100 µM (inactive); in the assay on NCI-H23 it was > 100 µM (inactive); with SR, 31.6 µM (inactive); in the assay with NCI-H522, 35.2 µM (inactive); with IGROV-1, 94.6 µM (inactive). Also, the GI50 with MOLT-4 was 74.8 µM (inactive); with HCC 2998, 17.8 µM (inactive); with SF-539, 82.4 µM (inactive); with SNB-75, 50.1 µM (inactive); with CAKI-1 it was > 100 µM (inactive); in the assay on OVCAR-3, 45 µM (inactive). In addition, the GI50 in the assay on K562 is 43.8 µM (inactive); in the assay on A498 it was 74 µM (inactive); with NCI-H226, 45 µM (inactive); in the assay on U-251 it was > 100 µM (inactive); with MDA-MB-231, > 100 µM (inactive); with UACC-62, 27.7 µM (inactive). Moreover, the GI50 in the assay with HCT-15 is 47.6 µM; with 786-0, 41 µM (inactive).

For the compound `O=S(=O)(c1cc(Cl)ccc1Cl)n1ccnc1`, the GI50 with OVCAR-5 was 35.5 µM (inactive); with OVCAR-8, 35.4 µM (inactive); in the assay on NCI-H23, 20.9 µM (inactive); in the assay with SR, 25.4 µM (inactive); in the assay with NCI-H522, 27.4 µM (inactive); with IGROV-1, 41.5 µM (inactive). For the same compound, the GI50 with MOLT-4 was 32.6 µM (inactive); in the assay on HCC 2998 it was 15.8 µM (inactive); in the assay on SF-539 it was 17.4 µM (inactive); in the assay on SNB-75 it was 41.8 µM (inactive); in the assay on CAKI-1, 39.7 µM (inactive); with OVCAR-3 it was 46.9 µM (inactive). In addition, the GI50 in the assay with K562 is 34 µM (inactive); in the assay with A498 it was 31 µM (inactive); in the assay on NCI-H226, 14.5 µM (inactive); in the assay with U-251 it was 33 µM (inactive); with MDA-MB-231, 23.4 µM (inactive); in the assay with UACC-62, 33.1 µM (inactive). Besides, the GI50 in the assay on HCT-15 is 24.7 µM; in the assay on 786-0, 54.2 µM (inactive).

For `N=c1oc2ccc(Cl)cc2cc1C(=O)Nc1ccccc1`, the GI50 was > 100 µM (inactive) with OVCAR-5; 56.5 µM (inactive) in the assay on OVCAR-8; > 48.5 µM (inactive) with NCI-H23; > 100 µM (inactive) in the assay on SR; 5.11 µM (inactive) with NCI-H522; 26.1 µM (inactive) in the assay with IGROV-1. Besides, the GI50 in the assay on MOLT-4 is > 100 µM (inactive); with HCC 2998, 36.3 µM (inactive); in the assay with SF-539 it was > 65.9 µM (inactive); in the assay with SNB-75, 23.6 µM (inactive); with CAKI-1 it was 11.1 µM (inactive); in the assay with OVCAR-3, > 100 µM (inactive). For the same compound, the GI50 is 27 µM (inactive) with K562; > 100 µM (inactive) in the assay on A498; > 100 µM (inactive) with NCI-H226; > 46.1 µM (inactive) in the assay with U-251; 53.8 µM (inactive) in the assay on MDA-MB-231; > 100 µM (inactive) with UACC-62. The values for the GI50 with HCT-15 and in the assay with 786-0 were more than 100 µM and 10.7 µM (inactive), respectively.

On to `O=[N+]([O-])c1cc2ccc1OCc1cccc(n1)COc1ccc(cc1[N+](=O)[O-])/C=N\CCCCCCCC/N=C\2`, for which the GI50 in the assay with OVCAR-5, in the assay with OVCAR-8, with NCI-H23, with SR, with NCI-H522 and with IGROV-1 was > 100 µM (inactive) each time. The GI50 with MOLT-4, with HCC 2998, with SF-539, in the assay with SNB-75, in the assay with CAKI-1 and with OVCAR-3 was > 100 µM (inactive) throughout. The GI50 in the assay on K562, with A498, in the assay with NCI-H226, with U-251, in the assay with MDA-MB-231 and in the assay with UACC-62 was > 100 µM (inactive) each time. Besides, the values for the GI50 in the assay on HCT-15 and in the assay on 786-0 were more than 100 µM and > 100 µM (inactive), respectively.

`Nc1nc(N)c2cc(CNc3ccc(C(=O)NC(CC(=O)O)C(=O)O)c(Cl)c3)ccc2n1` (stereo not given): the GI50 in the assay on OVCAR-5 was 0.191 µM (active); with OVCAR-8, 0.032 µM (active); in the assay on NCI-H23 it was 0.117 µM (active); in the assay with SR, 0.05 µM (active); with NCI-H522 it was 0.502 µM (active); in the assay on IGROV-1, 0.112 µM (active). In addition, the GI50 with MOLT-4 was 0.0175 µM (active); with HCC 2998, 1.43 µM (inactive); in the assay on SF-539, 0.313 µM (active); with SNB-75, > 20.8 µM (inactive); with CAKI-1 it was 0.0877 µM (active); in the assay on OVCAR-3 it was 0.8 µM (active). The GI50 in the assay on K562 was < 0.0192 µM (active); in the assay with A498, 0.171 µM (active); in the assay on NCI-H226, > 21.6 µM (inactive); with U-251 it was 0.0556 µM (active); with MDA-MB-231 it was 337 µM (inactive); in the assay with UACC-62, 0.0893 µM (active). In addition, the figures for the GI50 in the assay on HCT-15 and in the assay on 786-0 were 0.0203 µM and 0.0736 µM (active), respectively.

On to `COc1cccc2c1C(=O)c1c(O)c3c(c(O)c1C2=O)CC(O)(C(=O)CO)CC3OC1CC(N2CCOCC2C#N)C(O)C(C)O1` (stereo not given), for which the GI50 is < 0.0001 µM (active) in the assay on OVCAR-5; < 0.0001 µM (active) in the assay with OVCAR-8; < 0.0001 µM (active) in the assay on NCI-H23; < 0.0001 µM (active) in the assay with SR; < 0.0001 µM (active) in the assay with NCI-H522; > 0.01 µM (active) in the assay on IGROV-1. For the same compound, the GI50 in the assay with MOLT-4 was < 0.0001 µM (active); in the assay on HCC 2998 it was < 0.0001 µM (active); with SF-539 it was < 0.0001 µM (active); in the assay on SNB-75, > 0.01 µM (active); in the assay on CAKI-1, < 0.0001 µM (active); with OVCAR-3, < 0.0001 µM (active). The GI50 in the assay with K562 was < 0.0001 µM (active); in the assay with A498 it was > 0.01 µM (active); with NCI-H226, < 0.0001 µM (active); in the assay on U-251 it was < 0.0001 µM (active); in the assay on MDA-MB-231, < 0.0001 µM (active); in the assay on UACC-62, < 0.0001 µM (active). The GI50 was less than 0.0001 µM in the assay with HCT-15 and < 0.0001 µM (active) in the assay on 786-0.

On to `O=c1[nH]c2ccc([N+](=O)[O-])c(Cl)c2c2ccccc12`, for which the GI50 was 5.04 µM (inactive) in the assay with OVCAR-5; 1.29 µM (inactive) in the assay on OVCAR-8; 5.87 µM (inactive) in the assay on NCI-H23; 1.85 µM (inactive) with SR; 3.13 µM (inactive) with NCI-H522; 5.87 µM (inactive) with IGROV-1. The GI50 in the assay with MOLT-4 was 0.91 µM (active); with HCC 2998, 5.46 µM (inactive); in the assay on SF-539 it was 1.1 µM (active); in the assay with SNB-75, 9.04 µM (inactive); in the assay with CAKI-1 it was 2.41 µM (inactive); in the assay on OVCAR-3, 3.72 µM (inactive). Also, the GI50 is 0.634 µM (active) in the assay with K562; 13.2 µM (inactive) with A498; 11.5 µM (inactive) with NCI-H226; 4.43 µM (inactive) with U-251; 8.07 µM (inactive) in the assay on MDA-MB-231; 3.79 µM (inactive) in the assay with UACC-62. The GI50 in the assay with HCT-15 was 3.56 µM; in the assay on 786-0 it was 5.78 µM (inactive).
